These results are taken from patent US4347319A, “Microbiological epoxidation process” (priority 1980, dated 1982).

Common to all, as to format: biochemical
Assay [1] has as its system cell-free particulate fractions derived from the methylotrophic microorganisms. Nature of the assay: Inhibition of conversion of C3 -C6 n-alkanes to sec. alcohols. To be noted: oxygen and NADH present. The source says:
The conditions for preparing the cell suspensions or the cell-free particulate fractions from methane-grown methylotroph microorganisms is the same as described above.

Assay [2] concerns P(40) particulate fraction of Methylosinus sp. (CRL-15, NRRL B-11,202). The experiment in a line: Effect of inhibitors on propylene epoxidation and methane hydroxylation. To be noted: inhibitor 10^-3 M; P(40) fraction. Here is the method: (§1) The oxidation of methane and propylene by particulate [(P)40 and (P)80] fractions and soluble [S(80)] fraction was measured at 30° C. by estimating the production of methanol and propylene oxide, respectively. The reaction mixtures contained in […]: 150 mM potassium phosphate buffer, pH 7.0 containing 5 mM MgCl2 b, 0.6 ml; 10μ moles NADH, and cellular fraction.
Reaction mixtures were contained in 10 ml vials at 4° C. Vials were sealed with rubber caps. The gaseous phase in the vials was removed using vacuum and then was replaced with a gas mixture of methane or propylene and oxygen at a 1:1, v/v ratio. Oxidation of other gaseous n-alkanes and n-alkanes was examined as described above. For liquid substrates, 10 μl of substrate was used directly. Vials were then incubated at 30° C. on a rotary shaker at 200 RPM.
It has been reported that the oxidation of methane by cell suspensions of methane-utilizing bacteria was inhibited by various metal-binding or metal-chelating agents (Patel et al., J. Bacteriol. 126: 1017-1019 (1976)). […] (CRL-15, NRRL B-11,202) was examined.

In assay [3] the test system is purified secondary alcohol dehydrogenase from Pichia sp. NRRL Y-11,328. The experiment in a line: Inhibitors of purified yeast SADH. The conditions noted are these: primary alcohols tested at 10^-3 M. As to the method: Large scale cultures of Pichia sp. NRRL Y-11,328 were grown with aeration at 30° C. in a 14-liter New Brunswick f fermentor in a mineral salt medium containing methanol (0.4%, v/v) as the sole carbon source. The cells (200 g., wet weight) were suspended in […] sodium phosphate buffer, pH 7.0, containing 1 mM dithiothreitol (buffer A), and crude extracts were prepared as described previously. To the crude extracts, 18 ml. of protamine sulfate solution [2% solution in 0.1 M tris (hydroxymethyl) aminomethane (tris) base] was added dropwise with continuous stirring. After standing for 30 min., the extracts were centrifuged at 20,000×g. for 60 min. The supernatant solution was fractionated with solid ammonium sulfate. Extracts were brought to 50% of saturation with respect to ammonium sulfate by addition of 313 g. of the salt per liter of extract. Precipitated proteins was removed by centrifugation, and 137 g. of ammonium sulfate was added per liter of the supernatant liquid to bring it to 70% of saturation. Material precipitating between 50 and 70% of saturation was collected by centrifugation and dissolved in buffer A. This preparation was dialyzed overnight against buffer A, and the dialyzed material was applied to a DEAE-cellulose column (5×40 cm) that had been equilibrated with buffer A. The sample was washed with 200 ml. of buffer A and eluted with 2 liters of buffer A that contained NaCl in a linear gradient running from a concentration of 0 to 0.5 M. Fractions of 15 ml. were collected. Fractions containing secondary alcohol dehydrogenase activity were pooled and were termed DEAE-cellulose eluate. The DEAE-cellulose eluate was concentrated by ammonium sulfate fractionation.
Secondary alcohol dehydrogenase activity was measured spectrophotometrically at 340 nm with a NAD^+ as an electron acceptor. The reaction mixture, in a total 3.0 ml., contained 50 mM phosphate buffer, pH 8,0, 5 μ moles NAD^+, crude extracts, and substrate. The reactions were started by addition of 100 µl of 0.1 M substrate and the rate of NAD^+ reduction was measured. Protein concentration was determined by the method of Lowry et al.
Various primary alcohols not oxidized by secondary alcohol dehydrogenase were tested as potential inhibitors of enzyme activity.

The test system of assay [4] is purified secondary alcohol dehydrogenase (SADH) from Pseudomonas sp. ATCC 21439. Nature of the assay: Effect of metal-chelating agents and thio reagents on purified SADH. To be noted: final concentration of 1 mM; measured spectrofluorometrically. Here is the method: Secondary alcohol dehydrogenase (SADH) from an obligate methanol utilizer, Pseudomonas sp. ATCC 21439 was purified as follows. […] 0.05 M sodium phosphate buffer, pH 7.0 with 0.5 mM dithiothretol (buffer A) and were disrupted sonically (5×1 min.). The crude extract was separated by centrifugation. The crude extract was heat-treated at 50° C. in a water bath for 10 minutes. The resulting precipitate was removed by centrifugation. To the supernatant solution, 25 ml of protamine sulfate solution (2% solution in 0.1 M Tris base) was added dropwise with continuous stirring. After standing for 30 minutes, the extract was centrifuged. The supernatant solution was fractionated with solid ammonium sulfate. […] This DEAE-cellulose eluate was concentrated by ammonium sulfate fractionation. Material precipitating between 30 and 50% ammonium sulfate saturation was collected by centrifugation and dialyzed overnight against A. This fraction was further washed and filtered through an Amicon unit with XM 50 membrane. The concentrated fraction (6 ml) inside the Amicon unit was applied to an Affi-Gel Blue column (0.8 cm×18 cm) which had been equilibrated with buffer A for affinity chromatography. The column was washed overnight with buffer A (0.18 ml./min.) and then was eluted with buffer A containing 5 mM NAD. Each 1 ml. fraction was collected.
The purified secondary alcohol dehydrogenase enzyme (SADH) may be used directly for converting C3 -C6 secondary alcohols to the corresponding methyl ketones by the procedures described above; however, a source of NAD^+ must be added to the reaction medium. One can determine the NAD-linked secondary alcohol dehydrogenase activity with a fluorescence spectrophotometer (Perkin Elmer, Model MPF 44A) by following the formation of reduced NAD (Ex 340 nm, Em 460 nm). The assay system (3 ml.) will typically contain: sodium phosphate buffer pH 7.0, 150 μmol; NAD 1.0 μmol; a given amount of enzyme preparation; and 20 μmol secondary alcohol. The reaction is started by the addition of secondary alcohol. One unit of SADH enzyme activity represents the reduction of one nmole NAD per minute.
The effect of metal-chelating agents and chioreagents on the activity of the purified SADH enzyme were studied. […] The possibility of ethanol or n-propanol as an inhibitor was studied.

The test system of assay [5] is P(40) particulate fraction of Methylosinus sp. (CRL-15, NRRL B-11,202). Nature of the assay: Effect of metals on propylene epoxidation and methane hydroxylation. To be noted: metal 10^-3 M, P(40) fraction. Here is the method: as §1
Reaction mixtures were contained in 10 ml vials at 4° C. Vials were sealed with rubber caps. The gaseous phase in the vials was removed using vacuum and then was replaced with a gas mixture of methane or propylene and oxygen at a 1:1, v/v ratio. Oxidation of other gaseous n-alkanes and n-alkanes was examined as described above. For liquid substrates, 10 μl of substrate was used directly.
Since the methane mono-oxygenase from methane-utlizing bacteria is a copper or iron-containing protein (Tonge et al., J. Biochem., 161: 333-344 (1977)), we have examined the effect of copper and iron salts on the oxidation of methane and propylene by the P(40) particulate fraction of Methylosinus sp. (CRL-15, NRRL B-11,202). The rate of hydroxylation of methane to methanol and epoxidation of propylene to propylene oxide was increased twofold in the presence of added copper salts (Table XII).

The subject of assay [6] is purified secondary alcohol dehydrogenase from Pichia sp. NRRL Y-11,328. Nature of the assay: Substrate specificity, electron acceptor and stoichiometry of purified yeast SADH.
In assay [7] the test system is cell-free soluble extracts of C1 -utilizing microbes (secondary alcohol dehydrogenase). Nature of the assay: Cofactor requirement of cell-free SADH systems. As to the method: Catalytic activity was also assayed by fluorescence spectrophotometry.

Each structure is given as a SMILES string. “Also recorded” adds a separate entry of the source.

As for `c1cnc2c(c1)ccc1cccnc12` [1,10-Phenanthroline], the “inhibition of conversion of n-alkanes to sec. alcohols” value (“inhibition of conversion of n-alkanes” below) in assay [1] is “inhibited”. In assay [2], the “% Inhibition, Methane-Hydroxylating Activity” value is reported as 90% and the “% Inhibition, Propylene-Epoxidizing Activity” value turned out to be 93%. The “inhibition of secondary alcohol dehydrogenase activity” value in assay [3] is “strongly inhibited”. In assay [4], the “% inhibition of SADH activity” value is given as 95%.

Regarding `Oc1cccc2cccnc12` [8-Hydroxyquinoline], the “inhibition of conversion of n-alkanes” value in assay [1] is “inhibited”. Further, in assay [2], the “% Inhibition, Methane-Hydroxylating Activity” value turned out to be 80% and the “% Inhibition, Propylene-Epoxidizing Activity” value came to 75%.

Turning to `O=S(=O)([O-])[O-].[Cu+2]` [Cupric Sulfate], the “inhibition of secondary alcohol dehydrogenase activity” value in assay [3] is recorded as “inhibited”. Also, the “Methane-Oxidizing Activity” value in assay [5] (control 4.0) was found to be 7.1 μmoles/hr/mg protein. Further, in assay [5] (control […]), the “Propylene-Oxidizing Activity” value came to 9.0 μmoles/hr/mg protein.

For `Cc1cc2nc3c(=O)[nH]c(=O)nc-3n(C[C@H](O)[C@H](O)[C@H](O)COP(=O)(O)OP(=O)(O)OC[C@H]3O[C@@H](n4cnc5c(N)ncnc54)[C@H](O)[C@@H]3O)c2cc1C` [FAD, flavin adenine dinucleotide], in assay [6], the “electron acceptor / carrier” value is reported as “could not act as electron carrier”. Moreover, the “effectiveness as cofactor for oxidation of secondary alcohols” value (shortened to “effectiveness as cofactor for oxidation”) in assay [7] was “not effective”.

Consider `NC(=O)C1=CN([C@@H]2O[C@H](COP(=O)(O)OP(=O)(O)OC[C@H]3O[C@@H](n4cnc5c(N)ncnc54)[C@H](OP(=O)(O)O)[C@@H]3O)[C@@H](O)[C@H]2O)C=CC1` [NAD(P)H], for which the “effectiveness as cofactor for oxidation” value in assay [7] is on record as “not effective”.

On to `NC(=O)c1ccc[n+]([C@@H]2O[C@H](COP(=O)([O-])OP(=O)(O)OC[C@H]3O[C@@H](n4cnc5c(N)ncnc54)[C@H](O)[C@@H]3O)[C@@H](O)[C@H]2O)c1` [NAD, Nicotinamide adenine dinucleotide], for which the “electron acceptor / carrier” value in assay [6] was “required”. Besides, the “effectiveness as cofactor for oxidation” value in assay [7] is given as “requirement; also recorded: required”.

Turning to `NC(=O)c1ccc[n+]([C@@H]2O[C@H](COP(=O)([O-])OP(=O)(O)OC[C@H]3O[C@@H](n4cnc5c(N)ncnc54)[C@H](OP(=O)(O)O)[C@@H]3O)[C@@H](O)[C@H]2O)c1` [NADP], the “electron acceptor / carrier” value in assay [6] was “could not act as electron carrier”. Also, the “effectiveness as cofactor for oxidation” value in assay [7] is listed as “not effective”.

On to `NNC(N)=S` [Thiosemicarbazide], for which the “inhibition of conversion of n-alkanes” value in assay [1] is on record as “inhibited”. Further, in assay [2], the “% Inhibition, Methane-Hydroxylating Activity” value came to 100% and the “% Inhibition, Propylene-Epoxidizing Activity” value is 97%.

As for `NC(N)=S` [Thiourea], the “inhibition of conversion of n-alkanes” value in assay [1] is given as “inhibited”. For the same compound, in assay [2], the “% Inhibition, Methane-Hydroxylating Activity” value is given as 98% and the “% Inhibition, Propylene-Epoxidizing Activity” value was 98%. The “% inhibition of SADH activity” value in assay [4] amounted to 0%.

For the compound `O=C1C(Cl)=CC(=Nc2ccc(O)cc2)C=C1Cl` [dichlorophenol indophenol], the “electron acceptor / carrier” value in assay [6] is given as “could not act as electron carrier”. Also, in assay [7], the “effectiveness as cofactor for oxidation” value is given as “not effective”.

Take `N[C@@H](CCC(=O)N[C@@H](CS)C(=O)NCC(=O)O)C(=O)O` [glutathione]: in assay [3], the “inhibition of secondary alcohol dehydrogenase activity” value was “strongly inhibited”. In addition, the “effectiveness as cofactor for oxidation” value in assay [7] was “not effective”.

On to `C[n+]1c2ccccc2nc2ccccc21` [phenazine methosulfate], for which the “electron acceptor / carrier” value in assay [6] is given as “could not act as electron carrier”. Further, the “effectiveness as cofactor for oxidation” value in assay [7] is reported as “not effective”.

For the compound `c1ccc(-c2ccccn2)nc1` [α,α-Bipyridyl], the “inhibition of conversion of n-alkanes” value in assay [1] is on record as “inhibited”. Besides, in assay [2], the “% Inhibition, Methane-Hydroxylating Activity” value is recorded as 99% and the “% Inhibition, Propylene-Epoxidizing Activity” value came to 98%. Also, the “% inhibition of SADH activity” value in assay [4] was 70%.
